# Reference: US20240398819A1 (Rhode Island Hospital, priority 2023, published 2024)
# Experiments:
# [1] = test system: fibrocytes from explanted human anterior cruciate ligament (ACL) specimens; test: Effects of relaxin-2 antagonist / receptor antagonist on cultured ACL cells from patients with ACL reconstruction (RT-PCR); format: cell-based; conditions: Folic Acid 10 μg/ml, NADH 100 μg/ml
# Protocol: Measurements of expressions of MMP13, collagen 1A, collagen 3A, MMP3, and MMP1 in patient ACL tissues were conducted (FIG. 5). Biopsy tissues of the ACL from 20 patients (10 male and 10 female) who underwent surgeries for ACL reconstruction were harvested. The patients' ages ranged from 16 to 61 years, with equal numbers of males and females. The protocol for patient enrollment was approved by the IRB committee at our institution. […] After treatment, cells were lysed and analyzed for the expressions of type I collagen, type III collagen, MMP1, MMP3, and MMP13 using quantitative real-time polymerase chain reaction (RT-PCR). MMP13 expression (FIG. 5A); collagen 1A expression (FIG. 5B); collagen 3A expression (FIG. 5C); MMP3 expression (FIG. 5D); and MMP1 expression (FIG. 5E), all present the innovation. The protocol for patient enrollment was approved by the IRB committee at Rhode Island Hospital. GraphPad PRISM 8 software was used to perform all statistical analyses. Results were presented as mean+standard error of the mean (SEM) of different samples and considered significant when p<0.05. A t-test was used to compare any two groups, *p<0.05, **p<0.01, ***p<0.001 compared to their individual control group; ##p<0.01, compared to their individual relaxin-2 group.
# Measurements of expressions of MMP13, collagen 1A, collagen 3A, MMP3, and MMP1 in patient ACL tissues were conducted (FIG. 5). Biopsy tissues of the ACL from 20 patients (10 male and 10 female) who underwent surgeries for ACL reconstruction were harvested. The patients' ages ranged from 16 to 61 years, with equal numbers of males and females. The protocol for patient enrollment was approved by the TRB committee at our institution.
# After treatment, cells were lysed and analyzed for the expressions of type I collagen, type III collagen, MMP1, MMP3, and MMP13 using quantitative real-time polymerase chain reaction (RT-PCR). FIG. 5 provides expressions of MMP13, collagen 1A, collagen 3A, MMP3, and MMP1 in patient ACL tissues. (FIG. 5A) MMP13 expression; (FIG. 5B) collagen 1A expression; (FIG. 5C) collagen 3A expression; (FIG. 5D) MMP3 expression; (FIG. 5E) MMP1 expression. In FIG. 5, the protocol for patient enrollment was approved by the IRB committee at Rhode Island Hospital. GraphPad PRISM 8 software was used to perform all statistical analyses. Results were presented as mean+standard error of the mean (SEM) of different samples, and considered significant when p<0.05. A t-test was used to compare any two groups, *p<0.05, **p<0.01, ***p<0.001 compared to their individual control group; ##p<0.01, compared to their individual relaxin-2 group.
# [2] = test system: patient ACL cells; test: MMP gene expression (quantitative real-time RT-PCR) in cultured patient ACL cells treated with relaxin-2; format: cell-based, human
# Protocol: Methods: Biopsy tissues of the ACL in the knee were collected from 20 patients with ACL reconstruction (ages ranging from 16 years to 61 years old, 10 males and 10 females). The normal ACLs were obtained from the rejected human knee osteochondral grafts from the Musculoskeletal Transplant Foundation (MTF) or the donors from MedCure (ages ranging from 24 years to 84 years old, 4 male and 4 females) were used as control samples. Immunohistochemistry was performed to detect the expression of RXFP2 and apoptosis. The number of RXFP2 positive and apoptotic positive cells were counted from six different fields for each patient. ACL cells were cultured in vitro, then cells were treated with relaxin-2 at different concentrations. After treatment, cells were lysed and analyzed for the expressions of MMP1 and MMP13 using quantitative real-time polymerase chain reaction. The protocol for patient enrollment was approved by the IRB committee at Rhode Island Hospital. GraphPad PRISM 8 software was used to perform all statistical analyses. Results were presented as mean±standard error of the mean (SEM) of different samples. Data were examined by one-way analysis of variance (ANOVA) with Tukey post-hoc multiple comparison. An unpaired t-test was used to compare any two groups. A value of p<0.05 was considered to be statically significant.
# Patient ACL tissues were minced and digested with 1.0 mg/mL of type II collagenase at 37° C. at 5% CO2 in 2 mL Dulbecco's modified Eagle medium F12 (DMEM/F12, Gibco) containing 1% antibiotic-antimycotic (Gibco) for 12 hours. ACL cells were then filtered through a […] nylon mesh filter and collected by centrifugation. ACL cells were plated at a density of 1×10^5 cells/cm^2 in DMEM/F12 media supplemented with 10% fetal bovine serum (FBS, Gibco) and 1% antibiotic-antimycotic in 20 cm petri dishes for passage one. The media was changed twice a week. […]
# RNA was isolated using TRIzol reagent and RNeasy Mini Kit from cultured ACL cells. RNA concentrations and purity were evaluated using a Nanodrop spectrophotometer (Thermo Scientific, Wilmington, DE, USA). A total of 1 μg of sample RNA was reverse transcribed using the Quantitect RT Kit (Qiagen, cDNA was synthesized from RNA using the iScript cDNA synthesis kit (Bio-Rad). RNA concentrations and purity were evaluated using a Nanodrop spectrophotometer (Thermo Scientific, Wilmington, DE, USA). Exactly 500 ng DNA was used as the template for real-time PCR analyses. Quantitative PCR reactions were performed using SYBR Green Fast Mix in a Bio-Rad real-time PCR machine. All Taqman primer and probe mixes were from Thermo Fisher Scientific (Waltham, MA, USA). Changes in the gene expressions of MMP1 and MMP13 were measured, which were normalized to GAPDH.
# [3] = test system: patient ACL cells; test: cAMP level (ELISA) in patient ACL cells after relaxin-2 treatment; format: cell-based, human; conditions: male and female ACL cells
# Protocol: The detection of cAMP in samples was conducted using Abcam's cAMP Complete in vitro competitive Enzyme-Linked Immunosorbent Assay (ELISA) kit. Patient samples were first thawed from −80° C. and added to a 10% protease inhibitor in RIPA buffer (Thermo Scientific) solution for cell lysis. Each sample was then pipetted up and down 10 times with a syringe every 10 minutes over the course of 30 minutes. Next, the samples were centrifuged at 14,000 RPM for 5 minutes. The supernatant was then extracted from the pellet and stored at −80° C.
# Following cell lysis and supernatant extraction, the total protein concentration of the samples was determined using a BCA protein assay. Albumin standards were prepared with the RIPA buffer and protease inhibitor. […] Standards and samples were then loaded in a 96 well plate with BCA reagent and was read in a plate reader at 570 nm to determine overall protein concentrations in samples. The concentrations of cAMP were determined using Abcam's ELISA kit. […] Stop solutions were added, and the plate was read at 405 nm with correction between 570 nm and 590 nm to determine cAMP concentrations. cAMP concentrations in pmol/mg were calculated by dividing the cAMP concentrations in pmol/mL by the total protein concentrations from the BCA protein assay in mg/mL.
# [4] = 48 hour intravenous infusion, 30 μg/kg/day; compared with placebo group; cited from earlier work
# [5] = test system: ACL cells; test: Vitamin D effects on type I collagen and MMP13 gene expression in cultured ACL cells from patients (RT-PCR); format: cell-based, human; conditions: 3 days; for Type I collagen expression: vitamin D 1, 10 and 100 nmol/L
# Protocol: Biopsy tissues of the ACL in the knee were collected from 20 patients with ACL reconstruction (ages ranging from 16 years to 61 years old, 10 males and 10 females). The ACL cells were cultured in vitro and treated with vitamin D at different concentrations for 3 days. Cells were then lysed and analyzed for expressions of type I collagen and MMP13 genes using quantitative real-time polymerase chain reaction. The protocol for patient enrollment was approved by the IRB committee at Rhode Island Hospital. GraphPad PRISM 8 software was used to perform all statistical analyses. Results were presented as mean±standard error of the mean (SEM) of different samples and considered significant when p<0.05. A t-test was used to compare any two groups. See Appendix II for data and further discussion.
# [6] = male ACL cells, relaxin-2 treatments vs control groups
compound,measurement,setting,value
Nc1nc2ncc(CNc3ccc(C(=O)N[C@@H](CCC(=O)O)C(=O)O)cc3)nc2c(=O)[nH]1 [Folic acid],MMP-13 expression,[1],significant decrease
same,collagen 1A expression,[1],significant increases
same,collagen 3A expression,[1],significant increases
"NC(=O)C1=CN([C@@H]2O[C@H](COP(=O)(O)OP(=O)(O)OC[C@H]3O[C@@H](n4cnc5c(N)ncnc54)[C@H](O)[C@@H]3O)[C@@H](O)[C@H]2O)C=CC1 [NADH, nicotinamide adenine dinucleotide hydride]",MMP-13 expression,[1],significant decrease
same,collagen 1A expression,[1],significant increases
same,collagen 3A expression,[1],significant increases
relaxin-2,MMP13 expression,"[2]; female ACL cells, 10 ng/mL of relaxin-2, vs untreated controls",increased
same,MMP1 expression,"[2]; female ACL cells, 100 ng/mL of relaxin-2, vs untreated controls",increased
same,MMP1 expression,[2]; [6],didn't significant change
same,MMP3 expression,[2]; [6],didn't significant change
same,cAMP levels,[3],couldn't change
serelaxin,180-day mortality,[4],improvement
same,short-term dyspnea scores,[4],improvement
vitamin D,MMP13 gene expression,"[5]; female cells, vitamin D 1 nmol/L",increased
same,MMP13 gene expression,"[5]; female cells, vitamin D 10 nmol/L",reduced
same,Type I collagen expression,[5]; female cells,increased
same,MMP13 gene expression,"[5]; male cells, vitamin D 1 nmol/L",increased
same,MMP13 gene expression,"[5]; male cells, vitamin D 100 nmol/L",reduced
same,Type I collagen expression,[5]; male cells,not observed
